Experimental data: the supplement of paper PMC10307832

How the values were obtained:
Test in all cases: relative viability (nuclei count vs DMSO), 5 days (fraction); higher = more cells survive
[1] = compound: Cn1c(Nc2ccc(C(F)(F)F)cc2)nc2cc(Oc3ccnc(-c4ncc(C(F)(F)F)[nH]4)c3)ccc21 [RAF265] + N=C(N)NC(=N)NCCc1ccccc1 [Phenformin] (partner 250 µM)
Summary of the method: (§1)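 Lung cancer cell lines, seeded in 1536-well plates, were treated the following day by pin tool with a single drug or with five library-drug doses (not always all listed) in √10 steps on top of a fixed anchor-drug dose. Cells were fixed and nuclei stained in one step after 5 days, and nuclei were counted. Relative viability is the nuclei count for treated wells divided by that for vehicle wells, reported as medians of duplicate plates.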

[2] = compound: Cc1ccc(-n2nc(C(C)(C)C)cc2NC(=O)Nc2ccc(OCCN3CCOCC3)c3ccccc23)cc1 [Doramapimod] + Cc1nc(Nc2ncc(C(=O)Nc3c(C)cccc3Cl)s2)cc(N2CCN(CCO)CC2)n1 [Dasatinib] (partner 0.075 µM)
Summary of the method: as §1

[3] = compound: Cn1c(Nc2ccc(C(F)(F)F)cc2)nc2cc(Oc3ccnc(-c4ncc(C(F)(F)F)[nH]4)c3)ccc21 [RAF265] + CS(=O)(=O)CCNCc1ccc(-c2ccc3ncnc(Nc4ccc(OCc5cccc(F)c5)c(Cl)c4)c3c2)o1 [Lapatinib] (partner 2 µM)
Summary of the method: as §1

[4] = compound: C1=CC=C2C(=C1)C=CC(=C2SSC3=C(C=CC4=CC=CC=C43)O)O [IPA-3] + Cc1nc(Nc2ncc(C(=O)Nc3c(C)cccc3Cl)s2)cc(N2CCN(CCO)CC2)n1 [Dasatinib] (partner 0.075 µM)
Summary of the method: as §1

Cell Line	relative viability ([1]; first compound 0.01 µM)	relative viability ([1]; first compound 0.03162 µM)	relative viability ([1]; first compound 0.1 µM)	relative viability ([1]; first compound 0.3162 µM)	relative viability ([1]; first compound 1 µM)	relative viability ([2]; first compound 0.02 µM)	relative viability ([2]; first compound 0.06325 µM)	relative viability ([2]; first compound 0.2 µM)	relative viability ([2]; first compound 0.6325 µM)	relative viability ([2]; first compound 2 µM)	relative viability ([3]; first compound 0.01 µM)	relative viability ([3]; first compound 0.03162 µM)	relative viability ([3]; first compound 0.1 µM)	relative viability ([3]; first compound 0.3162 µM)	relative viability ([3]; first compound 1 µM)	relative viability ([4]; first compound 0.2 µM)	relative viability ([4]; first compound 0.6325 µM)	relative viability ([4]; first compound 2 µM)	relative viability ([4]; first compound 6.325 µM)	relative viability ([4]; first compound 20 µM)
NCI-H1355	0.432	0.434	0.41	0.309	0.332	0.713	0.692	0.724	0.753	0.623	1.07	0.969	0.842	0.85	0.596	0.774	0.719	0.714	0.695	0.594
EKVX	0.266	0.249	0.248	0.186	0.19	0.544	0.49	0.561	0.584	0.491	0.189	0.199	0.228	0.153	0.187	0.538	0.544	0.599	0.537	0.486
NCI-H441	0.914	0.833	0.725	0.628	0.633	0.413	0.506	0.544		0.425						0.796	0.295	0.486	0.502	0.438
NCI-H1975	0.386	0.343	0.284	0.251	0.205	0.284	0.365	0.353	0.374	0.357	0.809	0.791	0.618	0.469	0.412	0.466	0.368	0.337	0.334	0.299
HCC-78	0.87	0.847	0.832	0.647	0.652	0.359	0.431	0.364	0.382	0.304	0.902	0.702	1.24	0.938	0.209	0.43	0.359	0.462	0.439	0.427
NCI-H2085	0.858	0.683	0.742	0.642	0.644	0.253	0.252	0.221	0.28	0.201	0.777	0.709	0.806	0.843	0.717	0.224	0.256	0.267	0.23	0.266
H3255	0.358	0.378	0.372		0.349	0.296	0.56	0.414	0.314	0.351	0.254	0.248	0.26		0.17	0.387	0.249	0.428	0.335	0.284
NCI-H2087	0.512	0.413	0.377	0.331	0.287	0.937	1.07	0.809	0.893	0.837	0.964	0.874	0.837	0.833	0.684	1.16	0.663	0.865	0.822	0.777
LC-2-ad	0.628	0.581	0.586	0.394	0.455	0.464	0.514	0.638	0.561	0.391	0.906	1.03	0.813	0.654	0.208	0.616	0.537	0.662	0.611	0.615
PC-3 [JPC-3]	0.457	0.502	0.469		0.465	1	1.04	0.939	1.05	1.02	0.423	0.471	0.475	0.38	0.36	1.08	1.02	1.04	0.865	1.01
EBC-1											0.209	0.218	0.232	0.284	0.247					
HCC-15	0.486	0.483	0.464	0.355	0.316	0.56	0.598	0.634		0.595	0.832	0.893	0.847	0.657	0.638	0.682	0.605	0.548	0.596	0.471
NCI-H1563	0.676	0.674	0.66	0.64	0.623	0.437	0.478	0.44	0.82	0.421	1.01	0.885	0.992	0.815	0.737	0.418	0.506	0.447	0.537	0.442
COR-L 105	0.463	0.621	0.457	0.3	0.358	0.316	0.305	0.302	0.376	0.367	0.341	0.376	0.383	0.342	0.322	0.401	0.34	0.305	0.332	0.272
NCI-H520	0.553	0.544	0.579	0.555	0.397	0.183	0.166	0.148	0.213	0.182	0.894	0.873	0.776	0.694	0.498	0.311	0.194	0.185	0.18	0.179
LU99A	0.817	0.821	0.679	0.571	0.375	0.488	0.498	0.413	0.612	0.552	1.02	0.838	0.61	0.496	0.324	0.584	0.61	0.642	0.725	0.669
NCI-H1666	0.597	0.343	0.567	0.579	0.559	0.889	0.881	0.876	1.14	0.87	1.06	0.629	0.856	0.791	0.53	0.908	0.825	0.871	0.836	0.855
NCI-H2170	0.408	0.38	0.453	0.319	0.366	0.614	0.616	0.7	0.896	0.594	0.278	0.306	0.284	0.296	0.287	0.573	0.339	0.467	0.614	0.613
NCI-H2342	0.502	0.617	0.679	0.468	0.549	0.277	0.309	0.319	0.333	0.278						0.308	0.346	0.343	0.375	0.305

Cell Line	relative viability ([1]; first compound 0.01 µM)	relative viability ([1]; first compound 0.03162 µM)	relative viability ([1]; first compound 0.1 µM)	relative viability ([1]; first compound 0.3162 µM)	relative viability ([1]; first compound 1 µM)	relative viability ([2]; first compound 0.02 µM)	relative viability ([2]; first compound 0.06325 µM)	relative viability ([2]; first compound 0.2 µM)	relative viability ([2]; first compound 0.6325 µM)	relative viability ([2]; first compound 2 µM)	relative viability ([3]; first compound 0.01 µM)	relative viability ([3]; first compound 0.03162 µM)	relative viability ([3]; first compound 0.1 µM)	relative viability ([3]; first compound 0.3162 µM)	relative viability ([3]; first compound 1 µM)	relative viability ([4]; first compound 0.2 µM)	relative viability ([4]; first compound 0.6325 µM)	relative viability ([4]; first compound 2 µM)	relative viability ([4]; first compound 6.325 µM)	relative viability ([4]; first compound 20 µM)
LCLC-97TM1	0.42	0.384	0.21	0.252	0.148	0.837	0.87	0.768	0.699	0.591	1.12	1.05	0.443	0.856	0.219	0.933	0.844	0.945	1.01	0.83
NCI-H1299											0.926	0.918	0.955	0.69	0.742					
NCI-H3122	0.386	0.385	0.386		0.348	0.762	0.779	0.78	0.936	0.727	1.04	1.11	1.07	0.953	0.98	0.804	0.751	0.847	0.919	0.926
NCI-H1395	0.438	0.444	0.423	0.409	0.387	0.413	0.433	0.401	0.546	0.363	1.41	0.943	0.957	0.942	0.912	0.408	0.42	0.385	0.44	0.466
NCI-H2009	0.479	0.416	0.407	0.468	0.38	0.345	0.382	0.422	0.529	0.297	1.01	0.941	0.85	0.885	0.691	0.346	0.307	0.287	0.295	0.19
NCI-H1651	0.369	0.334	0.316	0.294	0.295	0.481	0.458	0.449	0.54	0.32	0.931	0.797	0.864	0.669	0.644	0.652	0.304	0.486	0.574	0.458
HARA	0.498	0.345	0.445	0.39	0.329	0.194	0.274	0.277		0.199	0.889	0.752	0.633	0.493	0.421	0.264	0.245	0.286	0.348	0.277
NCI-H1944	0.192	0.202	0.184	0.168	0.143	0.213	0.231	0.193	0.232	0.216	0.79	0.966	0.924	0.75	0.562	0.213	0.198	0.244	0.314	0.234
NCI-H2347	0.338	0.426	0.394	0.218	0.166	0.351		0.291	0.319	0.282	1.1	0.915	0.998	0.887	0.435	0.357	0.305	0.336	0.41	0.336
Calu-6											1.01	0.875	0.877	0.485	0.388					
NCI-H1703											1.07	0.825	1.03	0.613	0.386					
ChaGo-K-1	0.519	0.511	0.392	0.405	0.382	0.51	0.583	0.526	0.566	0.586						0.699	0.54	0.526	0.621	0.614
NCI-H1623	0.652	0.578	0.646		0.388	0.534	0.522	0.497	0.495	0.521						0.509	0.579	0.561	0.546	0.617
HCC-44	0.183	0.241	0.209	0.199	0.19						0.994	0.895	0.993	1.04	0.968					
NCI-H522	0.677	0.648	0.655	0.33	0.569	0.715	0.851	0.863	0.785	0.812						0.875	0.922	0.847	0.86	0.884
SW 900	0.73	0.491	0.665	0.283	0.293	0.654	0.548	0.714	0.813	0.553						0.74	0.703	0.667	0.781	0.543
IA-LM											0.652	0.578	0.759	0.653	0.52					
A549	0.148	0.123	0.201	0.0774	0.0726						0.906	0.853	0.987	0.465	0.463					
LCLC-103H	0.333	0.346	0.305	0.319	0.285	0.451	0.488	0.374	0.448	0.44						0.492	0.482	0.422	0.56	0.566
